Results published in patent publication US9549906B2, “Compositions and methods for treatment of ocular inflammation and/or pain” (priority 2013, dated 2017).
Entries after “also recorded” stand apart in the source; their conditions may differ.

Tests used:
[1] = cited from earlier work; for stability: acidic solutions, heat, air and light
[2] = test system: endotoxin-induced uveitis (EIU) model; assay: LPS-induced uveitis (EIU) in mice, intravital microscopy of adherent leukocytes; type: in vivo, BALB/c Mice; settings: CBD-DMH 10 mg/kg i.v. once right after intravitreal LPS; IVM at 5 hours
Description: Two different EIU experimental groups were examined in BALB/c Mice: • Group (A): Intravital microscopy (IVM) at 5 hours after intravitreal injection of saline (control) • Group (B): IVM at 5 hours after induction of EIU and i.v. administration of drug vehicle control (1 time, 0.2 mL 30% ethanol in saline right after intravitreal injection) • Group (C): IVM at 5 hours after induction of EIU and i.v. administration of cannabinoid (1 time, 0.2 mL 10 mg/kg CBD-DMH right after intravitreal injection).
The strain of animals chosen for these experiments was based on preliminary testing conducted and published literature (see, for example: Toguri et al., 2014). […] Depth of anesthesia was monitored via toe pinch test. […]
The technique of intravital microscopy (IVM) was used for in vivo investigation of leukocyte recruitment. The intravital fluorescence video microscope was focused on the iridial microcirculation, which allowed for imaging of the leukocyte-endothelial interactions. […] In each video, leukocyte recruitment was observed and recorded for 30 seconds each. […]
Several videos of each quadrant were recorded for 30 seconds. Leukocyte adhesion was the parameter analyzed. […] The number of adherent leukocytes within each vessel segment was calculated by measuring the diameter and length of vessel segment studied, assuming a cylindrical geometry of blood vessel. […]

[3] = test system: corneal hypersensitivity to capsaicin; assay: Corneal hyperalgesia model (silver nitrate cauterization), blinks to topical 1 μM capsaicin; type: in vivo, murine
Description: The chemical cauterization model of corneal inflammation and hyperalgesia is an established model to look at corneal sensitization and pain. Chemical cauterization of the murine cornea using topical silver nitrate produces non-specific inflammation followed by chronic behavioral sensitization to subsequent chemical stimuli (modified from Wenk & Honda, 2003).
The corneal reflex blink test provides a behavioral assessment of corneal sensitization and hyperalgesia (decreased pain threshold). The hyperalgesia (defined as increased responsiveness to painful stimuli) is gauged by quantifying the number and frequency of a protective blinking response in the treated eye (stimulus-induced blinking) relative to control non-sensitized eyes (Wenk and Honda 2003). Anti-inflammatory agents and agents that act at targets on nociceptive nerves can reduce development of corneal sensitization and hyperalgesic activity (reduced protective blinking response in response to noxious irritant).
Using a model characterized by Wenk & Honda, 2003, chemical cauterization using silver nitrate application to the cornea was used to create a corneal hypersensitivity model. Hypersensitivity was determined by assessing blinks to an ocular topical application of 1 μM capsaicin. The blink response is one measure of the level of corneal hyperalgesia. Increased blinking in response to capsaicin in a cauterized eye indicates a higher level of pain (FIG. 9).
In a model of corneal hyperalgesia, chemical cauterization of the cornea produces corneal epithelial damage, corneal edema and inflammation. […] The effect of repeated dosing with the CB2 allosteric modulator, CBD-DMH, or the cannabinoid Δ^9THC that acts as an agonist at CB1 and CB2 receptors, was tested to determine if these agents could prevent the development of hyperalgesia. Animals were videoed before and after capsaicin administration using a handheld device and video images were analyzed off-line by an observer blinded to the treatment. […]

[4] = molecular target: T1, CB2 (Homo sapiens, UniProt P34972); settings: cited from earlier work
T1 sequence (P34972 whole entry): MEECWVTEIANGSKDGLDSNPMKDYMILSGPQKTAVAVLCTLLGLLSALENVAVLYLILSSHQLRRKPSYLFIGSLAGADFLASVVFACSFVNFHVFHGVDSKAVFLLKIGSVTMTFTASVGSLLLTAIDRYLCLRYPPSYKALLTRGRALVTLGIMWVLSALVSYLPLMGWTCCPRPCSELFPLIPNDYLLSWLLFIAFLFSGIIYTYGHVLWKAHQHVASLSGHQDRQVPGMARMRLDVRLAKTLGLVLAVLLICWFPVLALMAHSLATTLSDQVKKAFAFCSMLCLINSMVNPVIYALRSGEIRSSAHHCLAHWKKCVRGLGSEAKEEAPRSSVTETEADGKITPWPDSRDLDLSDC

[5] = molecular target: T1, CB2; assay: In vitro CB2-dependent G protein signalling, overall conclusion (ERK, PLCβ3, cAMP); type: cell-based; set-up: expressed in transfected cells; host or cells: HEK 293A cells (transient transfection)
Description: Following 30 min treatment cells were lysed and cAMP activity was measured at 405 nm (RLU, relative light units). Concentration-response curves were fit using non-linear regression analysis (GraphPad Prism, version 5.0).

[6] = test system: dispase-induced PVR; assay: Dispase model of proliferative vitreoretinopathy (PVR): clinical score, histopathology, Iba1 microglia; settings: 10 mg/kg i.p. daily for 7 days
[7] = molecular target: T1, CB2; assay: In-Cell western, PLCβ3 phosphorylation (Gαq) in HEK 293A cells transfected with hCB2; type: cell-based; set-up: expressed in transfected cells; settings: HEK293-A; percentage of the maximal response to the agonist CP 55,940; read-out: Emax (%) ± SEM, PLCβ3 (Gαq)
Description: HEK cells were maintained at 37° C., 5% CO2 in Dulbecco's Modified Eagle's Medium (DMEM) supplemented with 10% Fetal Bovine Serum (FBS) and 10^4 U·mL^−1 Pen/Strep.
For In-Cell™ western analyses, cells were fixed for 10 min at room temperature with 4% paraformaldehyde and washed three times with 0.1 M PBS for 5 min each. Cells were incubated with blocking solution (0.1 M PBS, 5% normal goat serum, 0.3% TritonX-100, in dH2O) for 1 h at room temperature. Cells were treated with primary antibody diluted in antibody dilution buffer [0.1 M PBS, 1% (w/v) BSA, 0.3% TritonX-100, in dH2O] overnight at 4° C. Primary antibody solutions were: pERK1/2(Tyr205/185) (1:200), ERK1/2 (1:200), pPLCβ3(S537) (1:500), PLCβ3 (1:1000), or β-actin (1:2000; Santa Cruz Biotechnology). Cells were washed three times with 0.1 M PBS for 5 min each. Cells were then incubated in IR^CW800dye (1:500; Rockland Immunochemicals, Gilbertsville, Pa., USA) for 1 h at room temperature. Cells were washed three times with 0.1 M PBS for 5 min each. Cells were allowed to air-dry overnight.
In-Cell™ data were collected using the Odyssey Imaging system and software (version 3.0; Li-Cor, Lincoln, Nebr., USA).
Goodness of fit to non-linear regression models was tested in GraphPad (v. 5.0, Prism). […]

[8] = test system: endotoxin-induced uveitis (EIU) model; assay: Endotoxin-induced uveitis (EIU) in rats, intravital microscopy of leukocyte-endothelial adhesion; type: in vivo, male Lewis rats
Description: The endotoxin-induced uveitis (EIU) model is a widely used animal model of human bacterially-derived uveitis, involving inflammation of the uveal tract. The uveal tract comprises the middle layer of the eye, including the iris, ciliary body and […].
EIU was induced in male Lewis rats by intravitreal injection of 100 ng of lipopolysaccharide (LPS, Escherichia coli) in saline. Treatments of the cannabinoid 2 receptor (CB2R) agonist, HU-433 were administered, in the presence and absence of the selective antagonist, AM630. Cannabinoid treatments involved intravenous (i.v.) HU-433 (0.001-1 mg/kg), AM630 (2.5 mg/kg i.v.) and AM630+HU-433, administered 15 minutes after intravitreal injection of LPS. Intravital microscopy (IVM) was used to observe leukocyte-endothelial adhesion each hour after induction of EIU for a duration of 6 hours.
Data in FIG. 1 was collected from experiments using an animal model of ocular inflammation called endotoxin-induced uveitis. […] The level of inflammation is quantified by counting the number of adherent leukocytes in the iris microcirculation. Leukocytes must adhere to the microvasculature for more than 30 s (measured as adherent leukocytes per mm^2). Imaging was conducted in a minimum of 4 quadrants within the eye, 4 vessels each quadrant, 6 hours after inflammation was induced.
The strain of animals chosen for these experiments was based on preliminary testing conducted and published literature (see, for example: Toguri et al., 2014). The strain of mice chosen was BALB/c and Lewis rats were used. Animals were anesthetised prior to induction of uveitis. Mice were anesthetized with 5% isoflurane in 100% oxygen. Rats were anesthetized with 65 mg·kg^−1 of sodium pentobarbital. Depth of anesthesia was monitored via toe pinch test. The head of the animal was immobilized, and the sclera of the left eye was punctured with a 30-gauge needle at the dorsonasal quadrant at approximately the level of the equator. Mice received a total of 250 ng of LPS (E. coli 026:B6; Sigma-Aldrich, Oakville, ON, Canada) in 2 μl of sterile 0.9% saline. Rats received a total of 100 ng of LPS in 5 μl of sterile 0.9% saline. Intravitreal injections were made under microscopic control with a Hamilton syringe (Hamilton Company, Reno, Nev., USA), with a 30 G1/6 needle. To avoid touching the lens or causing any damage to the eye, the tip of the needle was directed towards the posterior pole and only the bevelled tip (2-3 mm) entered the vitreal cavity. The needle was held in place after injection for 5 seconds to avoid leakage of the LPS from the site of injection (sclerostomy). Sclerostomy was closed by tissue adhesive to prevent any leakage. Animals with bleeding or swelling post injection were excluded from the study.

[9] = test system: experimental models of sepsis; assay: Experimental models of sepsis; type: in vivo

CCCCCc1cc(O)c2c(c1)OC(C)(C)[C@@H]1CCC(C)=C[C@@H]21 [THC]
stability [1]: unstable in acidic solutions and when exposed to heat, air and light

C=C(C)[C@@H]1CCC(C)=C[C@H]1c1c(O)cc(C(C)(C)CCCCCC)cc1O [CBD-DMH, cannabidiol-dimethylheptyl]
number of adherent leukocytes [2]: decrease in number of adherent leukocytes | mean number of blinks for 1 minute to 1 μM capsaicin ([3]; 6 hours post corneal insult, 3 doses topical 5% CBD-DMH, 1-way ANOVA p<0.05): statistically significant decrease in blinks compared to untreated and vehicle treated eyes | corneal hypersensitivity (blinks over 1 minute to 1 μM capsaicin) ([3]; unilateral cauterized eye, 3 doses ocular topical 5% CBD-DMH): eliminates this hypersensitivity; also recorded: reduces hypersensitivity in a comparable matter to ocular topical NSAID; also recorded: eliminated hypersensitivity to capsaicin | potency relative to CBD ([4]; analgesic and anti-inflammatory effects in animal models): more than 10 fold | psychoactivity [4]: non-psychotropic | activation of CB2 in the absence of the orthosteric agonist CP55940 [5]: does not activate CB2 | effect on potency and efficacy of the orthosteric CB2 agonist CP55940 [5]: enhances the potency and efficacy | mode of action on CB2-dependent G protein signalling [5]: positive allosteric modulator | clinical score of PVR (scale 0-5) [6]: significantly decreased | histological score of PVR (scale 0-4) [6]: significantly decreased

C=C(C)[C@@H]1CCC(C)=C[C@H]1c1c(O)cc(CCCCC)cc1O [CBD, cannabidiol]
stability [1]: unstable in acidic solutions and when exposed to heat, air and light | water solubility [1]: poorly water-soluble | Emax [7]: 51.7 ± 7.04% | mode of action on CB2-dependent G protein signalling [5]: partial agonist

CCCCCCC(C)(C)c1cc(OC)c(C2C=C(CO)C3CC2C3(C)C)c(OC)c1 (stereo not shown) [HU-433]
number of adherent leukocytes in the iris microcirculation ([8]; HU-433 0.1 mg/kg i.v., 6 hours after intravitreal LPS, 0.1 mg/kg): significantly (p<0.05) reduce; also recorded: fewer adherent leukocytes | leukocyte-endothelial adhesion (inflammation) ([8]; HU-433 i.v. 0.01 and 0.1 mg/kg, 6 hours after induction of EIU): significantly (p<0.01) reduced | local release of inflammatory mediators ([8]; acute EIU): decreases local release of inflammatory mediators | potency in reducing ocular inflammation relative to HU-308 ([8]; experimental uveitis): more potent than HU-308 | potency in mitigating inflammation relative to HU-308 [9]: more potent than HU-308 | psychoactivity [4]: no psychoactivity | potency relative to HU-308 ([4]; in vitro and in vivo systems): 2-3 orders of magnitude

COc1ccc(C(=O)c2c(C)n(CCN3CCOCC3)c3cc(I)ccc23)cc1 [AM630, reference compound]
number of adherent leukocytes to the microvasculature, antagonist alone ([8]; AM630 2.5 mg/kg i.v. alone, p<0.01): significant increase | effect of CB2R antagonist pre-treatment on the agonist's decrease in leukocyte adhesion ([8]; AM630 2.5 mg/kg i.v. prior to CB2R agonist in EIU): abolished

C=C1CC/C=C(\C)CC[C@@H]2[C@@H]1CC2(C)C [Beta-C, β-caryophyllene]
corneal hyperalgesia ([3]; Beta-C, dose not given): appeared to also produce a reduction in hyperalgesia
